Key:
[1] = tested on: HT1080 p21-9 cells; experiment: Labeling index (3H-thymidine) and mitotic index; assay type: cell-based, human
Experimental: Cell growth in the presence of IPTG was assayed in three ways: measuring ^3H-thymidine incorporation (termed the “labeling index”); observing the number of mitotic cells in the culture by microscopy (termed the “mitotic index”) and determining the distribution of the culture cells in different portions of the cell cycle (termed the “cell cycle distribution”).
^3H-thymidine incorporation assays were performed substantially as described by Dimri et al. (1995, Proc. Natl. Acad. Sci. USA 92: 9363-9367). Cells were cultured in the presence of ^3H-thymidine for 3 h, and then analyzed by autoradiography. DNA replication was determined by autoradiography ceased entirely by 9 hours after addition of IPTG to the culture media. The mitotic index was determined by observing cells microscopically and calculating the number of cells in mitosis after staining with 5 μg/mL 4,6-diamino-2-phenylindole (DAPI), and images were collected using a Leica DMIRB fluorescence microscope and Vaytek (Fairfield, Iowa) imaging system. Microscopically-detectable mitotic cells disappeared from these cultures by 14 hrs of IPTG treatment.

[2] = tested on: C8 cells; experiment: Apoptosis assay in serum-starved C8 cells; assay type: cell-based, mouse; conditions: addition of IPTG by itself
Experimental: To verify the induction of secreted mitogenic and anti-apoptotic factors by p21, conditioned media from IPTG-treated HT1080 p21-9 cells were tested to investigate whether they would have an effect on cell growth and apoptosis. In these experiments, conditioned media were prepared by plating 10^6 HT1080 p21-9 cells per 15 cm plate in the presence of DMEM/10% FCS. The next day, IPTG was added to a final concentration of 50 μM, and this media was replaced three days later with DMEM supplemented with 0.5% FCS and 50 μM IPTG. Two days later (days 3-5 of IPTG treatment), this conditioned media was collected and stored at 4° C. up to 15 days before use. Control media were prepared by adding IPTG-free DMEM/0.5% FCS to untreated cells grown to the same density as IPTG-treated cells and collecting the media two days thereafter.
The effect of this conditioned media on apoptosis was also determined. […] Apoptosis was analyzed by plating 3×10^5 C8 cells per 6-cm plate, and replacing the media on the following day with fresh media supplemented with 0.4% serum or with conditioned media (no fresh serum added). DNA content analysis and DAPI staining were carried out after 24 hrs and 48 hrs, and relative cell numbers were measured by methylene blue staining (Perry et al., 1992, Mutat. Res. 276: 189-197) after 48 hrs in low-serum media.

[3] = tested on: NK4 promoter; experiment: Luciferase assay in LuNK4p21 cell line (NK4 promoter-luciferase, IPTG-inducible p21); assay type: cell-based, human
Experimental: This assay was performed as follows. Cells were plated at a density of 40,000 cells/well in 12 well plates in 1 mL of media containing penicillin/streptomycin, glutamine and 10% fetal calf serum (FCS). After attachment, cells were treated with 50 μM IPTG or left untreated for different periods of time. Luciferase activity was then measured as described in Example 8 above. An additional aliquot was removed from the cell lysate to measure protein concentration using the Bio-Rad protein assay kit (Bradford assay). Luciferase activity for each sample was normalized to protein content and expressed as luciferase activity/μg protein.
Luciferase assays were performed substantially as described in Example 9. Luciferase activity was measured after 16 hrs of incubation with or without 50 μM IPTG, followed by an additional 20 hr treatment in the presence or in the absence of 20 mM sodium salicylate, 1 mM sulindac, or 10 mM aspirin. […] NSAID concentrations were based on the pharmacologic concentrations of these agents in the serum of patients required for their anti-inflammatory properties (Yin et al., 1998, ibid.).

[4] = tested on: p21; experiment: p21 protein level after IPTG induction (ELISA); assay type: cell-based, human
Experimental: FIG. 2A is a graph of the time course of p21 induction after the addition of 50 μM IPTG, where p21 levels were determined by ELISA.
p21 expression from the LNp21CO3 vector in HT1080 p21-9 cells was induced by culturing the cells in DMEM medium containing 10% fetal calf serum (Hyclone, Logan, Utah) and IPTG. […] Upon removing the cells from IPTG-containing media, p21 expression fell about as rapidly as it had risen, returning to pre-induction levels at about 24 hours after IPTG was removed (FIG. 2B).

Structure (SMILES): CC(C)S[C@@H]1O[C@H](CO)[C@H](O)[C@H](O)[C@H]1O [IPTG, isopropyl-β-thiogalactoside]
- time of IPTG treatment by which mitotic cells disappeared ([1]; DAPI staining, microscopy): ≤ 14 h
- time after addition of IPTG by which DNA replication ceased entirely ([1]; autoradiography of 3H-thymidine incorporation): ≤ 9 h
- apoptosis in C8 cells [2]: no effect
- treatment period at which most of the induction is achieved ([3]; 50 μM IPTG): 17 h
- increase of luciferase expression ([3]; 50 μM IPTG, absence of NSAID): 3-4 fold
- IPTG concentration at which most of the induction is achieved ([3]; 24 hrs of IPTG treatment): 5 µM
- increase in luciferase levels in IPTG-treated cells ([3]; LuNK4p21 cell line): approximately 3 fold
- time of peak p21 expression post-induction ([4]; 50 μM IPTG): about 24 hours
- increase of p21 levels in IPTG-treated cells ([4]; HT1080 p21-9 cells): 15-20 fold
